Measurements reported in patent publication US20160361326A1, “METHOD OF TREATING HYPERGLYCEMIA AND DIABETES AND OF INCREASING ADSORPTION AND EFFICACY OF VITAMIN D” (Board of Supervisors of Louisiana State University and …, priority 2015, published 2016).

How the values were obtained:
[1] = system: Zucker diabetic fatty rats; test: L-cysteine supplementation in Zucker diabetic fatty rats: liver protein and mRNA expression, glutathione, reactive oxygen species; type: in vivo, rat; conditions: 8 weeks
Description: (§1) The animal protocol was approved by the institutional Animal Welfare Committee (P-15-006). All procedures performed were in accordance with the ethical standards of the institution. Male Zucker diabetic fatty rats at an age of 5 weeks and weighing about 200-220 g were purchased from Charles River (Wilmington, Mass., USA). The animals were allowed to acclimate to the environmental and handling conditions for 2 days. Computer generated randomization was used to divide rats into two groups, after which they were housed and labelled in individual cages. After overnight fasting they were weighed and tested for hyperglycemia by measuring their blood glucose concentration. Blood was collected via tail incision and the blood glucose levels were measured using an Advantage Accu-chek glucometer (Boehringer Mannheim Corp., Indianapolis, Ind., USA). One group of rats was labeled as diabetic controls and gavaged with saline alone. […] A third group included in the study, called the control group, consisted of male Sprague Dawley (SD) rats who were also gavaged daily with saline. […] Blood glucose and body weight were monitored weekly in all rats. Based on any change in their weights the L-cysteine supplementation dose was adjusted accordingly every week to maintain a similar dose per Kg BW over the entire period of the study.
(§2) All Zucker diabetic fatty rats were fed a high calorie Purina 5008 lab chow diet (Charles River, Wilmington, Mass., USA). This diet contained 3.4 IU vitamin D3 per gram diet. Sprague Dawley rats were fed a standard 8640 lab chow diet, which contained 3 IU vitamin D3 per gram diet (Harlan, Indianapolis, Ind., USA); both Zucker diabetic fatty and Sprague Dawley rats were maintained at 22 ±2° C. with 12:12-h light/dark cycles. Food intake of all rats was monitored. The control group contained six rats. There were also six rats each in the placebo and L-cysteine-supplemented diabetic rat groups. At the end of 8 weeks the rats were fasted overnight and euthanized by exposing them to halothane (2-bromo-2-chloro-1,1,1-trifluoroethane). Blood was drawn with a 191/2 gauge needle via cardiac puncture into vacutainer tubes. Aliquots of blood collected from all rats were sent to the clinical laboratory of LSUHSC-Shreveport for blood chemistry profiles, including liver and renal function and red blood cell counts. Plasma was isolated in a 4° C. centrifuge at 3000 rpm for 10 min from blood collected into EDTA tubes. Rat livers were perfused using cold saline. Once extracted, they were labeled appropriately, and stored at −80° C.
About 50 mg of liver tissue was weighed and homogenized in 1 mL TRIzol reagent (Invitrogen, Grand Island, N.Y., USA). The RNA extraction was performed according to the instructions provided. The concentration and quality of the extracted RNA were determined on a NanoDrop spectrophotometer (Thermo Scientific, Pittsburgh, Pa., USA). A High Capacity RNA-To-cDNA kit (Invitrogen) was used to synthesize cDNA. QPCR was performed using a 7900HT Real Time PCR system and software (Applied Biosystems, Grand Island, NY, USA) using the FAM-labeled primer/probe set Rn00561256_m1 for vitamin D binding protein (also called GC), Rn00690616_m1 for vitamin D receptor, Rn01754615 ml for CYP2R1, and Rn01775763_g1 for GAPDH (Invitrogen), respectively. The relative fold change of mRNA was calculated using the relative quantification (ΔΔCT) method.
Levels of glutathione and L-cysteine were determined using HPLC. In cell culture studies, the whole cell suspension was processed for the glutathione assay. Cell viability was determined using the Alamar Blue method (Alamar Biosciences, Sacramento, Calif., USA). Details of immunoblotting are similar to those known in the art. The antibodies for vitamin D binding protein (52 KD), β-Actin (40 KD), glutamate-cysteine ligase catalytic subunit (GCLC) (75 KD), and vitamin D receptor (48 KD) were purchased from Abcam (Cambridge, Mass., USA). […]

FL83B hepatocytes = test: L-cysteine supplementation in FL83B hepatocytes treated with control and high glucose; type: cell-based, mouse
Description: The FL83B hepatocyte cell line was purchased from American Type Culture Collection (ATCC, Manassas, Va., USA). FL83B hepatocytes were cultured and maintained in F-12K complete medium. […] Control cells were treated with mannitol, which is considered an osmolarity control in some experiments. After 24 h, complete media with serum was added and the cells were then treated as described in the figures.
Levels of glutathione and L-cysteine were determined using HPLC. In cell culture studies, the whole cell suspension was processed for the glutathione assay. Cell viability was determined using the Alamar Blue method (Alamar Biosciences, Sacramento, Calif., USA). Details of immunoblotting are similar to those known in the art. The antibodies for vitamin D binding protein (52 KD), β-Actin (40 KD), glutamate-cysteine ligase catalytic subunit (GCLC) (75 KD), and vitamin D receptor (48 KD) were purchased from Abcam (Cambridge, Mass., USA). The intensity of each immunoblotting band was measured using the histogram tool of Adobe Photoshop CS5.
mRNA extraction and cDNA synthesis were done as described in the previous section. The following primers were used for hepatocytes: vitamin D binding protein (also called GC) (Mm04243540_m1), vitamin D receptor (Mm00437297_m1), GCLC (Mm00802655_m1), and GAPDH (Mm03302249_g1) and were purchased from Invitrogen. Sequence of oligonucleotides of primers used is given in Supporting Information Material. The relative fold change of mRNA was calculated using the relative quantification (ΔΔCT) method and then normalized to % control for representation.

[2] = system: Zucker diabetic fatty rats; test: L-cysteine supplementation in Zucker diabetic fatty rats: plasma levels of VDBP, 25(OH) vitamin D, glutathione, MCP-1, CRP; type: in vivo, rat; conditions: 1 mg/kg BW daily oral gavage, 8 weeks
Description: as §1, §2
Plasma levels of 25(OH) vitamin D, […] were determined using an ELISA kit (Eagle Biosciences, Nashua, N.H., USA). Plasma vitamin D binding protein quantification was carried out using a kit purchased from Alpco (Salem, N.H., USA). The kit includes polyclonal antibodies that detect total vitamin D binding protein levels. The cytokines MCP-1 (R&D Systems Inc., Minneapolis, Minn., USA) and CRP (Alpco) were determined using the sandwich ELISA method and commercially available kits. In the cytokine assay, control samples were analyzed each time to check the variation from plate to plate on different days of analysis. […]
Levels of glutathione and L-cysteine were determined using HPLC. […] Cell viability was determined using the Alamar Blue method (Alamar Biosciences, Sacramento, Calif., USA). […] The intensity of each immunoblotting band was measured using the histogram tool of Adobe Photoshop CS5.

[3] = L-cysteine supplementation in Zucker diabetic fatty rats: body weight, plasma lipids, liver and kidney function tests; type: in vivo, rat
Description: as §1, with “rats.” for “rats. Based on any change in their weights the L-cysteine supplementation dose was adjusted accordingly every week to maintain a similar dose per Kg BW over the entire period of the study.”
as §2, with “There were also six rats each in the placebo and L-cysteine-supplemented diabetic rat groups.” left out

THP-1 monocytes = test: L-cysteine and vitamin D supplementation in control and high-glucose treated THP-1 monocytes; type: cell-based, human
Description: Control cells were treated with mannitol, which is considered an osmolarity control. To investigate the role of glutathione, siRNA specific for glutamate cysteine ligase catalytic unit (the catalytic component of the enzyme) was used to knock down the enzyme and induce glutathione deficiency. Complexes of glutamate cysteine ligase catalytic unit siRNA (Santa Cruz Biotechnology) and lipofectamine (Invitrogen) were allowed to form in culture flasks in serum free media, to which cells suspended in serum free media were added. After 24 hours complete media with serum was added and the cells were then treated as described in the figures.
25-hydroxy vitamin D (calcidiol) blood test is used to determine how much vitamin D is in the body. The blood concentration of calcidiol is considered an standard indicator of vitamin D status. The kit includes polyclonal antibodies that detect total vitamin D binding protein levels. Levels of glutathione and L-cysteine were determined using HPLC. Details of immunoblotting and cell viability are similar to those given in the publication Vitamin D and 1-cysteine levels correlate positively with glutathione and negatively with insulin resistance levels in the blood of type 2 diabetic patients. Eur J Clin Nutr 68: 1148-1153, 2014 by Jain S K, Micinski D, Huning L, Kahlon G, Bass P F, and Levine SN—such described methods incorporated by reference herein. The antibodies for glutamate cysteine ligase catalytic unit (73 KD), vitamin D binding protein (52 KD), and vitamin D receptor (48 KD) were purchased from Abcam (Cambridge, Mass.).

[4] = 1 mg/kg BW daily oral gavage, vs placebo
[5] = hepatocytes cultured with high glucose (25 mM)
[6] = vs placebo-supplemented diabetic rats
[7] = 1 mg/kg BW daily gavage for 8 weeks, mean ± SE, n=6
[8] = control and high glucose (25 mM)

N[C@@H](CS)C(=O)O [L-cysteine]
glutathione levels in liver [1, 4]: significantly higher | mRNA expression of vitamin D 25-hydroxylase (CYP2R1) in liver [1, 4]: significantly higher | mRNA expression of vitamin D binding protein in liver [1, 4]: significantly higher | protein expression of vitamin D 25-hydroxylase (CYP2R1) in liver [1, 4]: significantly higher | protein expression of vitamin D binding protein in liver [1, 4]: significantly higher | reactive oxygen species levels in liver [1, 4]: significantly lower | expression of protein for vitamin D receptor in liver ([1]; 1 mg/kg BW, higher vs placebo, p=0.17): not statistically significant | expression of mRNA for vitamin D receptor in liver ([1]; 1 mg/kg BW, higher vs placebo, p=0.30): not statistically significant | mRNA levels of vitamin D binding protein (FL83B hepatocytes; [5]): upregulation | mRNA levels of vitamin D receptor (FL83B hepatocytes; [5]): upregulation | protein expression of vitamin D binding protein (FL83B hepatocytes; [5]): upregulation | protein expression of vitamin D receptor (FL83B hepatocytes; [5]): upregulation | decrease in glutathione levels after high glucose treatment (FL83B hepatocytes; hepatocytes, high glucose (25 mM)): prevented | plasma glutathione ([2]; vs placebo): increase | blood levels of 25(OH) vitamin D [2, 6]: significantly higher | blood levels of vitamin D binding protein [2, 6]: significantly higher | CRP ([2]; plasma, vs placebo): decrease | MCP-1 ([2]; plasma, vs placebo): decrease | Body weight [3, 7]: 346 ± 6.3 g | Triglycerides [3, 7]: 509 ± 55 mg/dL | side effects of L-cysteine supplementation ([3]; 1 mg/kg BW daily gavage for 8 weeks, vs placebo): no negative side effects | Calcium ([3]; rat, in vivo, 1 mg/kg): 9.9 ± 0.4 mg/dL | glutathione levels (THP-1 monocytes): significant upregulation

C=C1CC[C@H](O)C/C1=C/C=C1\CCC[C@]2(C)[C@@H]([C@H](C)CCCC(C)C)CC[C@@H]12 [vitamin D, cholecalciferol]
vitamin D binding protein expression (VDBP/actin ratio) (THP-1 monocytes; [8]): increase | vitamin D receptor protein expression (VDR/actin ratio) (THP-1 monocytes; [8]): increase
